Values quoted from earlier work as cited in US7709469B2, “P2X7 receptor antagonists and methods of use” (Abbott Laboratories, priority 2005, dated 2010).

Tests used:
[1] = target: T1, P2X7 (Rattus norvegicus, UniProt Q64663); design: Rats with SCI were administered P2X7 receptor irreversible antagonists oATP and PPADS; host or cells: living rats (endogenous receptor); conditions: rats with SCI
T1 sequence (Q64663 1-595): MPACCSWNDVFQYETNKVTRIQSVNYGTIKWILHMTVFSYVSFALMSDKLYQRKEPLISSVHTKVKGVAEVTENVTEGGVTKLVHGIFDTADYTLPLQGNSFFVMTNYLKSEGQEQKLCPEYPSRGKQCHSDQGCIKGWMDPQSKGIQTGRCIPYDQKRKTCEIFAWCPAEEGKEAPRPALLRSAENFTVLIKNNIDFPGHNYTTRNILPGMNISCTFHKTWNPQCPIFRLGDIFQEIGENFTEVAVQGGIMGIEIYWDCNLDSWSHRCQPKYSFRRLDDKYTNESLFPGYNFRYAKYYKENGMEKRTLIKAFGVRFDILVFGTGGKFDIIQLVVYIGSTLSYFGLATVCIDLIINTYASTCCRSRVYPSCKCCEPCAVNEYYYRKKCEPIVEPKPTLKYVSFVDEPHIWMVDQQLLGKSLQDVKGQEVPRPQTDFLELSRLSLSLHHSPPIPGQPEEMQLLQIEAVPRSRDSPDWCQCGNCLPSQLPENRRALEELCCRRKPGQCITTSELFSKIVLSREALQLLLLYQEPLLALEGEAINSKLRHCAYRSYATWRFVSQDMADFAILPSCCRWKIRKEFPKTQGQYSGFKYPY

[2] = target: T1, P2X7; design: host or cells: living rats (endogenous receptor); conditions: inflamed rats

| Structure (SMILES) | histological injury and recovery of motor function after SCI [1] | antinociceptive properties [2] |
| --- | --- | --- |
| Cc1nc(N=Nc2ccc(S(=O)(=O)O)cc2S(=O)(=O)O)c(COP(=O)(O)O)c(C=O)c1O [PPADS] | decrease of histological injury and improved recovery of motor function | – |
| Nc1ncnc2c1ncn2[C@@H](C=O)O[C@@H](C=O)COP(=O)(O)OP(=O)(O)OP(=O)(O)O [oATP, Oxidized ATP] | decrease of histological injury and improved recovery of motor function | possess peripherally mediated antinociceptive properties |
